Like-named read-outs stand apart in the source and are kept apart here.
What was measured:
[1] = parameters: method as in PMID 23881998; settings: FDA Adverse Event Reporting System 1999 to 2011; cited from earlier work
[2] = Plasma and cerebral concentrations of oseltamivir and OC after oral administration of OP; assay type: in vivo, C57BL/6 mice; settings: OP 300 mg/kg p.o.; for AUC(0-t): C57BL/6, mouse, plasma, po, 300 mg/kg, read-out: AUC0–120 Plasma (converted); for mean brain-to-plasma ratio (BPR): mean AUCbrain / mean AUCplasma
Procedure: OP (300 mg/kg in 0.2 mL saline) was orally administered 4 h after the third injection of LPS. […] The brain tissue of mice was rapidly removed after the decapitation and rinsed in ice-cold PBS. Three to 9 mice were used at each sampling time point in each group.
Oseltamivir and OC levels in plasma and brain tissues were quantified by HPLC, as described in our previous study. Blood samples collected from the jugular vein were centrifuged to obtain plasma at 4°C (2,000 ×g, 15 min). Brain tissue samples were homogenized in 3.5 mL PBS/g tissue and centrifuged at 4°C (12,000 ×g, 10 min). Oseltamivir and OC were extracted from the resulting supernatant by solid-phase extraction (SPE) using Oasis MCX extraction cartridges (1 cc/30 mg, Waters, Milford, MA, USA) conditioned with 1 mL of methanol followed by 1 mL water. The supernatant sample (1 mL) was drawn through the cartridge and the cartridge was washed with 1 mL of 2% formic acid/water, followed by methanol and 0.005% ammonium hydroxide/methanol. The analytes were eluted with 3 mL of 5% ammonium hydroxide/methanol and evaporated to dryness under nitrogen at 40°C.
The HPLC system consisted of a pump (LC-10ADvp, Shimadzu Corp., Kyoto, Japan), degasser (DGU-12A, Shimadzu Corp.), column (Zorbax SB-CN 5 μm particle size, 4.6 × 250 mm, Agilent Technologies, CA, USA), column oven (CTO-10A, Shimadzu Corp.), and UV absorbance detector (SPD-10AV, Shimadzu Corp.). […] The column temperature was 50°C and the detector was operated at absorbance wavelength of 215 nm.

P-glycoprotein (P-gp) = tested on: P-glycoprotein (P-gp); parameters: method as in PMID 19029202; settings: cited from earlier work
[3] = tested on: organic anion transporter (OAT) 3; parameters: method as in PMID 19029202; settings: cited from earlier work
[4] = tested on: multidrug resistance protein (MRP) 4; parameters: method as in PMID 19029202; settings: cited from earlier work
[5] = Kak group (LPS + kakkonto 125 mg/kg p.o.)
[6] = Mao group (LPS + maoto 125 mg/kg p.o.)

Compound	odds ratio, abnormal behavior [1]	odds ratio, delirium [1]	AUC(0-t) ([2]; Con group (LPS + saline p.o.)) [ng·h/mL]	AUC(0-t) [2, 5] [ng·h/mL]	AUC(0-t) [2, 6] [ng·h/mL]	AUC0–120 Brain ([2]; Con group (LPS + saline p.o.)) [min·μg/g brain]	mean brain-to-plasma ratio (BPR) ([2]; Con group) [μL/g brain]	AUC0–120 Brain [2, 5] [min·μg/g brain]	mean brain-to-plasma ratio (BPR) ([2]; Kak group) [μL/g brain]	AUC0–120 Brain [2, 6] [min·μg/g brain]	mean brain-to-plasma ratio (BPR) ([2]; Mao group) [μL/g brain]	substrate for efflux transporter P-gp (P-glycoprotein (P-gp))	substrate for OAT3 [3]	substrate for MRP4 [4]
CCOC(=O)C1=C[C@@H](OC(CC)CC)[C@H](NC(C)=O)[C@@H](N)C1 [Tamiflu, Oseltamivir phosphate]	29.35	13.50	–	–	–	–	–	–	–	–	–	–	–	–
CCOC(=O)C1=C[C@@H](OC(CC)CC)[C@H](NC(C)=O)[C@@H](N)C1 [Oseltamivir, oseltamivir]	–	–	32500	84400	62500	79.35	40.70	200.21	39.52	119.92	31.98	substrate	–	–
CCC(CC)O[C@@H]1C=C(C(=O)O)C[C@H](N)[C@H]1NC(C)=O [OC, oseltamivir carboxylate]	–	–	12700	20000	14300	16.06	21.08	5.98	4.98	18.95	22.12	–	substrate	substrate

From paper PMC4350872, “The Inhibitory Effect of Kakkonto, Japanese Traditional (Kampo) Medicine, on Brain Penetration of Oseltamivir Carboxylate in Mice with Reduced Blood-Brain Barrier Function” (Evidence-based Complementary and Alternative Medicine : eCAM, 2015)
